Usually MIC stands for the lowest concentration that inhibits growth of the organism.

The results in this text go back to ChEMBL document CHEMBL5143590, “Dihydropyrimidinone imidazoles as unique structural antibacterial agents for drug-resistant gram-negative pathogens” (Eur J Med Chem, 2022).

≈ marks a conversion by molar mass, not a printed value.

Holding throughout (assay type): functional
For experiment [1], the system named is Candida albicans. Put plainly: Antibacterial activity against Candida albicans 90023 assessed as inhibition of bacterial growth.
Experiment [2] deals with Acinetobacter baumannii. Put plainly: Antibacterial activity against Acinetobacter baumannii assessed as inhibition of bacterial growth by two fold serial dilution method.
Experiment [3] has as its system Staphylococcus aureus. Put plainly: Antibacterial activity against Staphylococcus aureus assessed as inhibition of bacterial growth by two fold serial dilution method.
In experiment [4] the test system is Escherichia coli. Put plainly: Antibacterial activity against Escherichia coli 25922 assessed as inhibition of bacterial growth by two fold serial dilution method.
Experiment [5] has as its system Pseudomonas aeruginosa. Put plainly: Antibacterial activity against Pseudomonas aeruginosa assessed as inhibition of bacterial growth by two fold serial dilution method.
The test system of experiment [6] is Enterococcus faecalis. Put plainly: Antibacterial activity against Enterococcus faecalis assessed as inhibition of bacterial growth by two fold serial dilution method.
Experiment [7] deals with Klebsiella pneumoniae. Put plainly: Antibacterial activity against Klebsiella pneumoniae assessed as inhibition of bacterial growth by two fold serial dilution method.
Experiment [8] concerns Pseudomonas aeruginosa. Put plainly: Antibacterial activity against Pseudomonas aeruginosa 27853 assessed as inhibition of bacterial growth by two fold serial dilution method.
Experiment [9] has as its system Acinetobacter baumannii. Kind of experiment: Bactericidal activity against Acinetobacter baumannii assessed as fold increase in MIC value after 16 passages by two fold serial dilution method.
In experiment [10] the test system is Staphylococcus aureus. Put plainly: Antibacterial activity against Staphylococcus aureus 25923 assessed as inhibition of bacterial growth by two fold serial dilution method.
For experiment [11], the system named is Staphylococcus aureus. Kind of experiment: Antibacterial activity against Staphylococcus aureus 29213 assessed as inhibition of bacterial growth by two fold serial dilution method.
For experiment [12], the system named is Escherichia coli. Kind of experiment: Antibacterial activity against Escherichia coli assessed as inhibition of bacterial growth by two fold serial dilution method.
Experiment [13] relates to Klebsiella pneumoniae. Put plainly: Bactericidal activity against Klebsiella pneumoniae assessed as fold increase in MIC value after 16 passages by two fold serial dilution method.
For experiment [14], the system named is Staphylococcus aureus. Kind of experiment: Antibacterial activity against methicillin-resistant Staphylococcus aureus N315 assessed as inhibition of bacterial growth by two fold serial dilution method.

`O=c1nc(N(Cc2ccc(Cl)c(Cl)c2)CC(O)(Cn2cncn2)c2ccc(F)cc2F)c(F)c[nH]1` (stereo unspecified): the MIC in experiment [1] turned out to be 8 µM (≈ 4.2 µg/mL).
For `CCn1cc(C(=O)O)c(=O)c2cc(F)c(N3CCNCC3)cc21` [NORFLOXACIN], the MIC was 8 µg/mL (≈ 25.1 µM) in experiment [2]; 2 µg/mL (≈ 6.26 µM) in experiment [3]; 8 µg/mL (≈ 25.1 µM) in experiment [4]; 2 µg/mL (≈ 6.26 µM) in experiment [5]; 4 µg/mL (≈ 12.5 µM) in experiment [6]; 4 µg/mL (≈ 12.5 µM) in experiment [7]. Moreover, the MIC is 0.5 µg/mL (≈ 1.57 µM) in [8]; 1 µg/mL (≈ 3.13 µM) in experiment [10]; 2 µg/mL (≈ 6.26 µM) in experiment [11]; 16 µg/mL (≈ 50.1 µM) in [12]; 16 µg/mL (≈ 50.1 µM) in [14]. For the same molecule, the “fold change (FC)” value in experiment [9] and in experiment [13] was 32 throughout.
For `CCCCc1nc(Cl)c(C2NC(=O)NC(C)=C2C(=O)OCC)n1CCN1CCOCC1` (stereo unspecified), the MIC in [2] is 128 µg/mL (≈ 282 µM); in experiment [3], 32 µg/mL (≈ 70.5 µM); in experiment [4], 128 µg/mL (≈ 282 µM); in experiment [5] it was 256 µg/mL (≈ 564 µM); in [6] it was 128 µg/mL (≈ 282 µM); in [7] it was 64 µg/mL (≈ 141 µM). Further, the MIC was 256 µg/mL (≈ 564 µM) in experiment [8]; 128 µg/mL (≈ 282 µM) in experiment [10]; 128 µg/mL (≈ 282 µM) in experiment [11]; 128 µg/mL (≈ 282 µM) in [12]; 64 µg/mL (≈ 141 µM) in experiment [14].
Take `CCCCc1nc(Cl)c(C2NC(=O)NC(C)=C2C(=O)OCC)n1Cc1cccc(Cl)c1` (stereo unspecified): the MIC in experiment [2] was found to be 32 µg/mL (≈ 68.8 µM); in experiment [3], 64 µg/mL (≈ 138 µM); in experiment [4], 32 µg/mL (≈ 68.8 µM); in experiment [5], 128 µg/mL (≈ 275 µM); in [6] it was 64 µg/mL (≈ 138 µM); in experiment [7] it was 32 µg/mL (≈ 68.8 µM). In addition, the minimum inhibitory concentration (MIC) in [8] amounted to 64 µg/mL (≈ 138 µM); in experiment [10] it was 32 µg/mL (≈ 68.8 µM); in [11], 64 µg/mL (≈ 138 µM); in experiment [12] it was 64 µg/mL (≈ 138 µM); in [14], 64 µg/mL (≈ 138 µM).
As to `CCCCc1nc(Cl)c(C2NC(=O)NC(C)=C2C(=O)OCC)n1C` (stereo unspecified), the MIC in experiment [2] was found to be 64 µg/mL (≈ 180 µM); in [3], 32 µg/mL (≈ 90.2 µM); in [4], 64 µg/mL (≈ 180 µM); in [5], 64 µg/mL (≈ 180 µM); in experiment [6], 128 µg/mL (≈ 361 µM); in experiment [7], 128 µg/mL (≈ 361 µM). In addition, the MIC in experiment [8] was found to be 256 µg/mL (≈ 721 µM); in experiment [10], 256 µg/mL (≈ 721 µM); in [11], 64 µg/mL (≈ 180 µM); in experiment [12] it was 128 µg/mL (≈ 361 µM); in experiment [14] it was 64 µg/mL (≈ 180 µM).
`CCCCc1nc(Cl)c(C2NC(=O)NC(C)=C2C(=O)OCC)n1CCF` (stereo unspecified): the minimal inhibitory concentration (MIC) in experiment [2] is 64 µg/mL (≈ 165 µM); in [3], 32 µg/mL (≈ 82.7 µM); in [4] it was 128 µg/mL (≈ 331 µM); in experiment [5], 64 µg/mL (≈ 165 µM); in [6], 64 µg/mL (≈ 165 µM); in [7], 128 µg/mL (≈ 331 µM). The MIC in [8] came to 64 µg/mL (≈ 165 µM); in experiment [10], 64 µg/mL (≈ 165 µM); in [11], 64 µg/mL (≈ 165 µM); in [12] it was 32 µg/mL (≈ 82.7 µM); in experiment [14] it was 128 µg/mL (≈ 331 µM).
As to `CCCCc1nc(Cl)c(C2NC(=O)NC(CNS(=O)(=O)c3ccc(N)cc3)=C2C(=O)OCC)[nH]1` (stereo unspecified), the minimum inhibitory concentration (MIC) in experiment [2] worked out at 128 µg/mL (≈ 250 µM); in [3], 128 µg/mL (≈ 250 µM); in experiment [4], 256 µg/mL (≈ 501 µM); in experiment [5] it was 256 µg/mL (≈ 501 µM); in experiment [6] it was 256 µg/mL (≈ 501 µM); in experiment [7] it was 256 µg/mL (≈ 501 µM). Moreover, the MIC in experiment [8], in [10], in [11], in experiment [12] and in [14] was 256 µg/mL (≈ 501 µM) in each case.
In the case of `CCCCc1nc(Cl)c(C2NC(=O)NC(C)=C2C(=O)OCC)n1S(=O)(=O)c1ccccc1` (stereo unspecified), the MIC was determined as 64 µg/mL (≈ 133 µM) in experiment [2]; 64 µg/mL (≈ 133 µM) in experiment [3]; 128 µg/mL (≈ 266 µM) in experiment [4]; 64 µg/mL (≈ 133 µM) in experiment [5]; 64 µg/mL (≈ 133 µM) in [6]; 128 µg/mL (≈ 266 µM) in experiment [7]. Moreover, the MIC in experiment [8] was determined as 64 µg/mL (≈ 133 µM); in [10], 128 µg/mL (≈ 266 µM); in experiment [11], 256 µg/mL (≈ 532 µM); in experiment [12] it was 64 µg/mL (≈ 133 µM); in [14], 128 µg/mL (≈ 266 µM).
Take `CCCCc1nc(Cl)c(C2NC(=O)NC(CN(c3nccs3)S(=O)(=O)c3ccc(N)cc3)=C2C(=O)OCC)[nH]1` (stereo unspecified): the minimum inhibitory concentration (MIC) in experiment [2], in experiment [3], in [4], in experiment [5], in [6] and in experiment [7] was 256 µg/mL (≈ 431 µM) throughout. Also, the MIC in experiment [8] is 256 µg/mL (≈ 431 µM); in experiment [10], 256 µg/mL (≈ 431 µM); in [11] it was 256 µg/mL (≈ 431 µM); in experiment [12] it was 256 µg/mL (≈ 431 µM); in experiment [14], 128 µg/mL (≈ 215 µM).
